# Measurements: PubChem BioAssay (NCI)
# Where “and” joins values, the source holds several entries; their conditions need not be identical. Equal entries are not always repeated.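 All cell lines were grown in 96-well plates and treated with compound for 48 hours. Here, GI50 denotes the concentration required for 50% inhibition of growth. TGI denotes the concentration required for complete inhibition of growth.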 Where a SMILES comes first, the peptide text is derived from it. The star is where a group is joined. Cbz = O=C(OCc1ccccc1)*
# What was measured:
# Test in all cases: NCI tumour cell line growth inhibition, 48 h
# HCC-2998 colon = system: HCC-2998 colon
# HL-60(TB) leukemia = system: HL-60(TB) leukemia
# HOP-62 NSCLC = system: HOP-62 NSCLC
# OVCAR-4 ovarian = system: OVCAR-4 ovarian
# OVCAR-5 ovarian = system: OVCAR-5 ovarian
# RXF 393 renal = system: RXF 393 renal
# SF-539 CNS = system: SF-539 CNS
# SK-MEL-5 melanoma = system: SK-MEL-5 melanoma
# SN12C renal = system: SN12C renal
# SNB-19 CNS = system: SNB-19 CNS
SMILES,TGI (HCC-2998 colon),TGI (HL-60(TB) leukemia),TGI (HOP-62 NSCLC),TGI (OVCAR-4 ovarian),TGI (OVCAR-5 ovarian),TGI (RXF 393 renal),TGI (SF-539 CNS) [µM],TGI (SK-MEL-5 melanoma) [µM],TGI (SN12C renal),TGI (SNB-19 CNS),GI50 (HL-60(TB) leukemia) [µM],GI50 (OVCAR-4 ovarian) [µM],GI50 (RXF 393 renal) [µM],GI50 (SN12C renal) [µM]
CCOC(=O)c1nc2cc(C(F)(F)F)ccc2nc1Nc1ccc(Cl)c(Cl)c1,> 100 µM,> 100 µM,> 100 µM,> 100 µM,> 100 µM,> 100 µM,> 100,> 100,> 100 µM,> 100 µM,,,,
Cc1cccc2c1C(=O)C(C1OC(=O)c3ccccc31)C2 (centres undefined),> 100 µM,> 100 µM,> 100 µM,> 100 µM,> 100 µM,> 100 µM,> 100,> 100,> 100 µM,> 100 µM,,,,
Cn1c(=O)n(CC(Br)CBr)c(=O)n(CC(Br)CBr)c1=O (centres undefined),81.1 µM,58 µM,> 100 µM,> 100 µM,> 100 µM,> 100 µM,61.1,32.9,67.3 µM,> 100 µM,,,,
C[C@@H]1C(O)CC[C@H](C)C12CC=CC2=O (some centres undefined),> 100 µM,> 100 µM,> 100 µM,> 100 µM,> 100 µM,> 100 µM,> 100,> 100,> 100 µM,> 100 µM,,,,
CCC1(C)N=C(C(N)=O)c2ncn(N=C(C)C)c2N1 (centres undefined),> 100 µM,> 100 µM,> 100 µM,> 100 µM,> 100 µM,> 100 µM,> 100,> 100,> 100 µM,> 100 µM,,,,
Cc1ccc2[nH]c3c(C)c4ccncc4c(C)c3c2c1,2.87 µM,3.42 µM,3.24 µM,2.56 µM,2.81 µM,0.513 µM,2.68,2.92,2.39 µM,2.62 µM,,,,
CN1C[C@@H]2CCCN2P1Oc1cccc2cccnc12 (some centres undefined),> 100 µM,72.9 µM,> 100 µM,> 100 µM,> 100 µM,> 100 µM,> 100,> 100,> 100 µM,> 100 µM,,,,
COC/C=C\[C@@]1(O)CCCC[C@@H]1CC(OC)OC,> 100 µM,> 28.4 µM,> 100 µM,> 76.4 µM,> 100 µM,> 92.1 µM,> 100,> 100,43.7 µM,> 100 µM,,,,
Cc1ccc(C2=Nc3c(N)nc(N)nc3NC(c3ccccc3)C2)cc1 (centres undefined),19.3 µM and 18.7 µM,20.3 µM,25.5 µM and 22.3 µM,27.6 µM and 29.9 µM,30.5 µM and 33.5 µM,25.2 µM and 21.3 µM,25.3,34.4,23.7 µM and 32 µM,27 µM and 32.9 µM,,,,
CCOC(=O)C(C)NC(=O)C(C)NC(=O)C(C)NC(=O)C(C)NC(=O)C(C)NC(=O)C(C)NC(=O)C(C)NC(=O)OCc1ccccc1 (centres undefined) (Cbz-AAAAAAA-OEt; configuration not given here),> 100 µM,> 100 µM,> 100 µM,> 100 µM,> 100 µM,> 100 µM,> 100,> 100,> 100 µM,> 100 µM,,,,
Fc1ccc(C(OCCN2CCC3CCC(C2)N3Cc2cc3ccccc3[nH]2)c2ccc(F)cc2)cc1 (centres undefined),3.06 µM,3.69 µM,4.54 µM,5.68 µM,4.18 µM,3.12 µM,3.01,3.11,3.05 µM,7.55 µM,,,,
Cc1nc2c(-c3ccccc3)[nH]c(C)c2c(=O)o1,> 100 µM,> 100 µM,> 100 µM,> 100 µM,> 100 µM,> 100 µM,> 100,> 100,> 100 µM,> 100 µM,,,,
O=C(O)CCC1(c2ccccc2)NC(=O)NC1=O (centres undefined),> 100 µM,> 100 µM,> 100 µM,> 100 µM,> 100 µM,> 100 µM,> 100,> 100,> 100 µM,> 100 µM,,,,
CC(=O)OC[C@@]12C[C@H]3C(=O)C(C)(C)C[C@H]3[C@]1(C)[C@@H](OC(C)=O)[C@]1(O)[C@H]([C@@H](OC(=O)c3ccccc3)[C@@H](C)[C@H]1OC(C)=O)[C@H]2OC(C)=O,> 20 µM,> 20 µM,> 20 µM,> 20 µM,> 20 µM,> 20 µM,> 20,> 20,> 20 µM,> 20 µM,,,,
O=C1c2ccccc2C(=O)N1c1ccc(OCCN2CCCCC2)cc1,> 100 µM,> 100 µM,> 100 µM,> 100 µM,> 100 µM,> 100 µM,> 100,> 100,> 100 µM,> 100 µM,,,,
Clc1nc2c(-c3cccs3)ncnc2n1Cc1ccccc1,9.84 µM,> 70.3 µM,> 100 µM,> 100 µM,> 100 µM,51.2 µM,> 100,> 100,> 100 µM,> 78.3 µM,,,,
Cc1nc(-c2nc([N+](=O)[O-])c([N+](=O)[O-])[nH]2)cs1,> 100 µM,> 100 µM,> 100 µM,> 100 µM,> 100 µM,> 100 µM,> 100,> 100,> 100 µM,> 100 µM,,,,

SMILES,TGI (HCC-2998 colon),TGI (HL-60(TB) leukemia),TGI (HOP-62 NSCLC),TGI (OVCAR-4 ovarian),TGI (OVCAR-5 ovarian),TGI (RXF 393 renal),TGI (SF-539 CNS) [µM],TGI (SK-MEL-5 melanoma) [µM],TGI (SN12C renal),TGI (SNB-19 CNS),GI50 (HL-60(TB) leukemia) [µM],GI50 (OVCAR-4 ovarian) [µM],GI50 (RXF 393 renal) [µM],GI50 (SN12C renal) [µM]
O=C(NC(Nc1ccc(F)c(Cl)c1)(C(F)(F)F)C(F)(F)F)C(C(F)(F)F)C(F)(F)F,> 100 µM,44.6 µM,> 100 µM,88.9 µM,78.1 µM,63.4 µM,48.7,81.3,> 100 µM,> 100 µM,,,,
C[N+]1(C)CN(c2ccccc2)C2(CCN(CCCC(=O)c3cccs3)CC2)C1=O,> 100 µM,> 100 µM,> 100 µM,> 100 µM,> 100 µM,> 100 µM,> 100,77.1,> 100 µM,> 100 µM,,,,
CC(C)(C)OC(=O)N1CCC23CCCC2C(=O)CC=C13 (centres undefined),> 100 µM,> 100 µM,> 100 µM,> 100 µM,> 100 µM,> 100 µM,> 100,> 100,> 100 µM,> 100 µM,,,,
COC(=O)CCCCC/C(=C\C(=O)C(Cl)(Cl)Cl)OC,35.6 µM,47.6 µM,> 100 µM,42.1 µM,> 100 µM,41.1 µM,44.4,> 100,> 100 µM,> 100 µM,,,,
CC(=O)Oc1c(OC(C)=O)c(-c2ccc(O)c(O)c2)c(O)c(O)c1-c1ccc(O)cc1,> 100 µM,52.6 µM and > 100 µM,> 100 µM,> 100 µM,> 100 µM,> 100 µM,> 100,> 100,> 100 µM,> 100 µM,19,59,> 100,73.8
C=CCn1c(=O)c(C)cn(/C(=C/C(=O)OCC)C(=O)OCC)c1=O,33.5 µM,5.48 µM,> 100 µM,46.4 µM,30.2 µM,28.2 µM,63.2,36.3,29.7 µM,> 86.1 µM,,,,
CC(C)(C)OC(=O)NC(Cc1ccc([N+](=O)[O-])cc1)C(=O)NC(CCCCNC(=O)OCc1ccccc1)C(=O)ON1C(=O)CCC1=O (centres undefined),79.4 µM,> 100 µM,> 100 µM,> 100 µM,> 100 µM,> 100 µM,> 100,> 100,> 100 µM,> 100 µM,,,,
CC/C(Cl)=N\OC(=O)Nc1ccc(C#N)cc1,30.1 µM,6.2 µM,39.2 µM,23.6 µM,29.5 µM,21.4 µM,30.5,25.9,30.3 µM,> 100 µM,,,,
O=C1OC(CN2CCN(c3ccccc3)CC2)CN1C(=S)Nc1ccccc1 (centres undefined),> 100 µM,> 100 µM,> 100 µM,> 100 µM,> 100 µM,> 100 µM,> 100,> 100,> 100 µM,> 100 µM,,,,
NC(=O)N(O)c1cccc(Br)c1,> 100 µM,> 100 µM,> 100 µM,> 100 µM,> 100 µM,> 100 µM,> 100,> 100,> 100 µM,> 100 µM,,,,
CCN(CC)CCNc1ccc(C)c2sc3ccc(O)cc3c(=O)c12,2.66 µM,0.979 µM,1.66 µM,6.12 µM,9.3 µM,5.82 µM,2.5,2.3,1.85 µM,15.6 µM,,,,
Nc1ncc(Cc2nc3ccccc3s2)s1,> 100 µM,> 100 µM,> 100 µM,> 100 µM,> 100 µM,> 100 µM,> 100,> 100,> 100 µM,> 100 µM,,,,
Cc1cn(C2CC(N=[N+]=[N-])C(CO[Si](C)(C)C(C)(C)C)O2)c(=O)[nH]c1=O (centres undefined),26.5 µM,72.4 µM,34.1 µM,28.1 µM,49.1 µM,32.3 µM,35.6,32.4,30.4 µM,38.3 µM,,,,
CC(C)(C)C=C=C(C(C)(C)C)P(=O)(O)O,> 100 µM,> 100 µM,> 100 µM,> 100 µM,> 100 µM,> 100 µM,> 100,> 100,> 100 µM,> 100 µM,,,,
N#Cc1c(NC(=S)NCc2ccccc2)sc2c1CCN(N1CCc3c(sc(NC(=S)NCc4ccccc4)c3C#N)C1)C2,> 100 µM,> 100 µM,> 100 µM,> 100 µM,> 100 µM,> 100 µM,> 100,> 100,> 100 µM,> 100 µM,,,,
Nc1c(C(=O)c2ccccc2)[nH]c(NCc2ccccc2)c1C(=S)Nc1ccccc1,> 100 µM,> 100 µM,> 100 µM,> 100 µM,> 100 µM,> 100 µM,> 100,> 100,> 100 µM,> 100 µM,,,,
COc1cc(CC2c3cc(OC)c(OC)cc3CCN2C)c(Oc2cc3c(cc2OC)-c2c(OC)c(OC)c(OC)c4c2C(C3)N(C)CC4)cc1OC (centres undefined),13.7 µM,> 100 µM,31.3 µM,33.1 µM,30.6 µM,14.9 µM,25.8,13.4,28.6 µM,43.3 µM,,,,
